ChEMBL document CHEMBL1132132, “Synthesis of heparin partial structures and their binding activities to platelets” (1999)

Experiments:
Format in all cases: functional
Homo sapiens [1] = species on record: Homo sapiens; test: Platelets binding activity relative to heparin was evaluated by competitive binding assay using [3H]-labeled heparin at concentration ~1000 uM
Homo sapiens [2] = species on record: Homo sapiens; test: Platelets binding activity relative to heparin was evaluated by competitive binding assay using [3H]-labeled heparin at concentration ~400 uM
Homo sapiens [3] = species on record: Homo sapiens; test: Platelets binding activity relative to heparin was evaluated by competitive binding assay using [3H]-labeled heparin at concentration ~80 uM
Homo sapiens [4] = species on record: Homo sapiens; test: Platelets binding activity relative to heparin was evaluated by competitive binding assay using [3H]-labeled heparin at concentration 0.001 uM
Homo sapiens [5] = species on record: Homo sapiens; test: Platelets binding activity relative to heparin was evaluated by competitive binding assay using [3H]-labeled heparin at concentration ~1.2 uM
Homo sapiens [6] = species on record: Homo sapiens; test: Platelets binding activity relative to heparin was evaluated by competitive binding assay using [3H]-labeled heparin at concentration ~60 uM
Homo sapiens [7] = species on record: Homo sapiens; test: Platelets binding activity relative to heparin was evaluated by competitive binding assay using [3H]-labeled heparin at concentration ~1.9 uM
Homo sapiens [8] = species on record: Homo sapiens; test: Platelets binding activity relative to heparin was evaluated by competitive binding assay using [3H]-labeled heparin at concentration ~50 uM

Compound	Binding (Homo sapiens [1]) [%]	Binding (Homo sapiens [2]) [%]	Binding (Homo sapiens [3]) [%]	Binding (Homo sapiens [4]) [%]	Binding (Homo sapiens [5]) [%]	Binding (Homo sapiens [6]) [%]	Binding (Homo sapiens [7]) [%]	Binding (Homo sapiens [8]) [%]
CO[C@H]1O[C@H](COS(=O)(=O)[O-])[C@@H](O[C@H]2O[C@H](C(=O)[O-])[C@@H](OC)[C@H](O)[C@H]2OS(=O)(=O)[O-])[C@H](O)[C@H]1NS(=O)(=O)[O-].[Na+].[Na+].[Na+].[Na+]	97	96	97	115	96	–	–	–
CO[C@H]1O[C@H](CO)[C@@H](O[C@H]2O[C@H](C(=O)[O-])[C@@H](OC3O[C@H](COS(=O)(=O)[O-])[C@@H](OC)[C@H](O)[C@H]3NS(=O)(=O)[O-])[C@H](O)[C@H]2OS(=O)(=O)[O-])[C@H](O)[C@H]1NS(=O)(=O)[O-].[Na+].[Na+].[Na+].[Na+].[Na+] (stereo not given in full)	110	110	–	–	100	105	100	–
CO[C@H]1O[C@H](COS(=O)(=O)[O-])[C@@H](O[C@H]2O[C@H](C(=O)[O-])[C@@H](O[C@H]3O[C@H](COS(=O)(=O)[O-])[C@@H](OC)[C@H](O)[C@H]3NS(=O)(=O)[O-])[C@H](O)[C@H]2OS(=O)(=O)[O-])[C@H](O)[C@H]1NS(=O)(=O)[O-].[Na+].[Na+].[Na+].[Na+].[Na+].[Na+]	97	100	–	–	105	–	105	105
CO[C@@H]1O[C@H](C(=O)[O-])[C@@H](O[C@H]2O[C@H](COS(=O)(=O)[O-])[C@@H](OC)[C@H](OS(=O)(=O)[O-])[C@H]2NS(=O)(=O)[O-])[C@H](O)[C@H]1OS(=O)(=O)[O-].[Na+].[Na+].[Na+].[Na+].[Na+]	75	115	100	–	100	–	98	–
